Reference: ChEMBL document CHEMBL1782020, “Novel 7-phenylsulfanyl-1,2,3,4,10,10a-hexahydro-pyrazino[1,2-a]indoles as dual serotonin 5-HT2C and 5-HT6 receptor ligands” (Bioorg Med Chem Lett, 2010)

Assays:
[1] = target: T1, 5-hydroxytryptamine receptor 2C (Homo sapiens, UniProt P28335); test: Displacement of [3H]mesulergine from human 5HT2C receptor in human tsA201 cells; type: cell-based
T1 sequence (P28335 whole entry): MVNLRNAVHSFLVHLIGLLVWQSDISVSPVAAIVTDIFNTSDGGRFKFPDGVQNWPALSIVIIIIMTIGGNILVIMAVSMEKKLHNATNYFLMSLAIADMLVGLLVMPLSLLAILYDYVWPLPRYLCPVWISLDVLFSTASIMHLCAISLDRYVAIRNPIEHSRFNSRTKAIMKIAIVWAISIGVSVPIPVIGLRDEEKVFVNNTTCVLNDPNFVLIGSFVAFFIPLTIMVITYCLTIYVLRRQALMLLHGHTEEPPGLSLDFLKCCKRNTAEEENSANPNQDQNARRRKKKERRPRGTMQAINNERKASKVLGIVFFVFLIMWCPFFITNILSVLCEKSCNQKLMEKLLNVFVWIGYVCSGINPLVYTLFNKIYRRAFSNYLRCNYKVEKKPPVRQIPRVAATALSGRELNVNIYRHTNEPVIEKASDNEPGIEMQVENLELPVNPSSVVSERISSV

[2] = target: 5-hydroxytryptamine receptor 6 (Homo sapiens, UniProt P50406); test: Displacement of [3H]5-LSD from human 5HT6 receptor expressed in human HeLa cells; type: cell-based
Chain of 5-hydroxytryptamine receptor 6 (P50406 whole entry): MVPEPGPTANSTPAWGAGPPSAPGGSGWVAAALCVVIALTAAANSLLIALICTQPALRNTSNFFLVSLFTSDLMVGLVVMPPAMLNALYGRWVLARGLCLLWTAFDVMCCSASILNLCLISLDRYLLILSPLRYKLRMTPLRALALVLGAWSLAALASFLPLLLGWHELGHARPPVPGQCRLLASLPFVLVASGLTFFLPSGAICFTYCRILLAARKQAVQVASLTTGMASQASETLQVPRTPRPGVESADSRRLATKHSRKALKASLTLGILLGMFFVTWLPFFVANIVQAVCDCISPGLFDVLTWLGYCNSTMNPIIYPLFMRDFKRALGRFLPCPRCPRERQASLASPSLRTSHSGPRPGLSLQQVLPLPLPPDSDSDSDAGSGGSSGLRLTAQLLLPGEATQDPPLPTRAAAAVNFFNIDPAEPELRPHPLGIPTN

Structure (SMILES)	Ki [1] [nM]	Ki [2] [nM]
c1ccc(Sc2cccc(N3CCNCC3)c2)cc1	91	
COc1ccc(Sc2cccc(N3CCNCC3)c2)cc1	74	
Cc1ccccc1Sc1ccc2c(c1)N1CCNCC1C2 (stereo unspecified)	49	81
Cc1cccc(Sc2ccc3c(c2)N2CCNCC2C3)c1 (stereo unspecified)	77	50
Cc1ccc(Sc2ccc3c(c2)N2CCNCC2C3)cc1 (stereo unspecified)	68	110
COc1ccccc1Sc1ccc2c(c1)N1CCNCC1C2 (stereo unspecified)	41	23
COc1cccc(Sc2ccc3c(c2)N2CCNCC2C3)c1 (stereo unspecified)	120	110
COc1ccc(Sc2ccc3c(c2)N2CCNCC2C3)cc1 (stereo unspecified)	57	78
Fc1ccccc1Sc1ccc2c(c1)N1CCNCC1C2 (stereo unspecified)	49	150
Fc1ccc(Sc2ccc3c(c2)N2CCNCC2C3)cc1 (stereo unspecified)	61	160
FC(F)(F)c1ccccc1Sc1ccc2c(c1)N1CCNCC1C2 (stereo unspecified)	83	330
FC(F)(F)c1cccc(Sc2ccc3c(c2)N2CCNCC2C3)c1 (stereo unspecified)	180	300
FC(F)(F)c1ccc(Sc2ccc3c(c2)N2CCNCC2C3)cc1 (stereo unspecified)	280	760
NCCc1cccc(Sc2ccccc2)c1	150	
O=C1NCCN1CCN1CCC(c2cn(-c3ccc(F)cc3)c3ccc(Cl)cc23)CC1 [SERTINDOLE]		5
